Data set [1] concerns prurigo nodularis patients. Briefly: Example 2 trial: ItchyQoL total score. In kind it is in vivo, human. As to conditions: for Mean (SD) decrease in ItchyQoL total score from baseline to Week 10: placebo −5.45 (10.91). The method, then:
This clinical study was a double-blind, placebo-controlled trial in which prurigo nodularis patients were randomized in a 1:1:1 ratio to nalbuphine ER tablets to a target dose of 90 mg twice daily (BID), nalbuphine HCl ER tablets 180 mg BID, or placebo tablets BID. Use of nonsedating rescue antihistamine medications (non-first generation H1-antihistamines [Simons F E. Advances in H1-antihistamines. N Engl J Med. 2004; 351(21):2203-17.]) were allowed in the study but their use was recorded. Cleansing emollients were allowed for hygiene purposes provided there were no active substances (such as menthol or urea) contained in the lotion. A placebo comparator was chosen because there are no approved treatments for prurigo nodularis in the United States or Europe or an established standard of care that could serve as an active control.
Quality of life-related secondary endpoints included change from Day 1 to the Evaluation Period in itching-related quality of life (using the Itchy QoL) and itching-related sleep disruption (using the MOS Sleep Scale-R). The Hospital Anxiety and Depression Score (HADS) used as a general measure of anxiety and depression.
Efficacy analysis of secondary continuous endpoints was performed using a mixed model repeated ANCOVA with the main effects of treatment and site, including the baseline value for each endpoint as the covariate. The model included time (i.e. Visit) as a factor variable and treatment*time (with placebo as the reference category) with an unstructured covariance structure for repeated measures. For other secondary efficacy endpoints, the Time factor corresponded to the scheduled study visits when the assessment was obtained (Visit 3, Visit 4, and Visit 5). Data from all post-baseline visits were used to fit the model.
In the first 2 weeks of treatment, patients were blindly force-titrated to their assigned target dose, with the patients in the active arms reaching a dose of 90 mg BID (NAL 90) and, for those in the high dose group, to 180 mg BID (NAL 180) in the second week. […]

The conditions of data set [2]: injectable formulations (IV or IM or SC); cited from earlier work.

This is an account of results in patent US20220347171A1, “TREATMENT OF PRURIGO NODULARIS” (TREVI THERAPEUTICS, INC., priority 2016, published 2022).

What is called half-life is how long it takes for the measured level to halve.

The structures appear in SMILES notation. Counter-ions that a name gives are not always drawn.

Turning to `Oc1ccc2c3c1OC1[C@@H](O)CC[C@@]4(O)[C@@H](C2)N(CC2CCC2)CC[C@]314` (stereo partly drawn) [Nalbuphine, 17-(cyclobutylmethyl)-4,5α-epoxymorphinian-3, 6α, 14-triol, hydrochloride], the “Mean (SD) decrease in ItchyQoL total score from baseline to Week 10” value in data set [1] (90 mg BID) was −7.79 (7.83); in data set [1] (180 mg BID), −13.83 (13.45). Further, in data set [1] (180 mg BID, Week 10, p=0.022), the “ItchyQoL total score, LS mean difference versus placebo (mixed model repeated measures)” value is reported as −8.75. In addition, the half-life in data set [2] was 2 to 3 h.
